What was measured:
[1] = Antagonist activity at mAChR in human CCRF-CEM cells assessed as decrease in acetylacholine-stimulated Ca2+ flux preincubated for 25 mins followed by acetylacholine addition measured for 90 secs by calcium dye-based fluorescence assay; format: cell-based
[2] = Agonist activity at mAChR in human CCRF-CEM cells assessed as induction of Ca2+ flux measured for 90 secs by calcium dye-based fluorescence assay; format: cell-based
[3] = molecular target: T1, C-X-C chemokine receptor type 4 (Homo sapiens, UniProt P61073); test: Antagonist activity at human CXCR4 in CCRF-CEM cells assessed as decrease in SDF-1alpha stimulated Ca2+ flux preincubated for 25 mins followed by SDF-1alpha addition measured for 90 secs by calcium dye-based fluorescence assay; format: functional, cell-based
T1 sequence (P61073 whole entry): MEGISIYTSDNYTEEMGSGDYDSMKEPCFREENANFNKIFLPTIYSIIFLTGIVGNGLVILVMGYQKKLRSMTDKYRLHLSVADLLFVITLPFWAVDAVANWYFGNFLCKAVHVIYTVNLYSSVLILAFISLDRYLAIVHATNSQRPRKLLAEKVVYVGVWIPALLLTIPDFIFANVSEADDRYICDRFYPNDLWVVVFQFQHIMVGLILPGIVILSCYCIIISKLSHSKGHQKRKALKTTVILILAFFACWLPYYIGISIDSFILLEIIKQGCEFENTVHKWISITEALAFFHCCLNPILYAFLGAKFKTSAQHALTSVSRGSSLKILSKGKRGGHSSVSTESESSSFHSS

[4] = Permeability of the compound at pH 5.5 at 100 uM after 4 hrs by PAMPA
Cytochrome P450 2D6 = Cytochrome P450 2D6 (Homo sapiens, UniProt P10635); test: Inhibition of recombinant human CYP2D6 expressed in microsomes of insect cells using AMMC as substrate preincubated for 30 mins followed by NADP addition after 45 mins by fluorescence analysis
Chain of Cytochrome P450 2D6 (P10635 whole entry): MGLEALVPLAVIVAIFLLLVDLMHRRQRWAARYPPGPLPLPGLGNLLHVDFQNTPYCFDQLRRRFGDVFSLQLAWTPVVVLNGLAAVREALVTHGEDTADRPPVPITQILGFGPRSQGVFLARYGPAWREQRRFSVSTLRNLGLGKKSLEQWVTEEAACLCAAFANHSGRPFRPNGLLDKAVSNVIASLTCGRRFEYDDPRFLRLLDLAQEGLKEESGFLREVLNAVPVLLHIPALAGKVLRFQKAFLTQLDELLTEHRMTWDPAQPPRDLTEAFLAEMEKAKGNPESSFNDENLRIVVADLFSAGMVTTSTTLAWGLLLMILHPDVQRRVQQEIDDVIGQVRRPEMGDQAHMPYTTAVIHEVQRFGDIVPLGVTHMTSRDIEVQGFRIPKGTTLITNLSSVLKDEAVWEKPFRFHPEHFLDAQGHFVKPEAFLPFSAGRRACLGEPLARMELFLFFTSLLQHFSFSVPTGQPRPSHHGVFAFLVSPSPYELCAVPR

[5] = Metabolic stability in human liver microsomes assessed as parent compound remaining at 0.5 uM after 10 mins in presence of NADPH by LC-MS/MS analysis
[6] = Metabolic stability in mouse liver microsomes assessed as parent compound remaining at 0.5 uM after 10 mins in presence of NADPH by LC-MS/MS analysis
[7] = molecular target: T1, C-X-C chemokine receptor type 4; test: Agonist activity at CXCR4 in human CCRF-CEM cells assessed as induction of Ca2+ flux measured for 90 secs by calcium dye-based fluorescence assay; format: functional, cell-based
[8] = Permeability of the compound at pH 7.4 at 100 uM after 4 hrs by PAMPA

Row | Structure (SMILES) | IC50 [1] | EC50 [2] | IC50 [3] | Papp at 4 h, 100 µM [4] | IC50 (Cytochrome P450 2D6) | remaining at 10 min, 0.5 µM [5] | remaining at 10 min, 0.5 µM [6] | EC50 [7] | Papp at 4 h, 100 µM [8]
1 | c1ccc(CNCCCCN(C[C@H]2Cc3ccccc3CN2)[C@H]2CCCc3cccnc32)nc1 | > 30 µM | > 30 µM | – | – | – | – | – | – | –
2 | c1ccc2c(c1)CN[C@@H](CN(CCCCNC1CCCCC1)[C@H]1CCCc3cccnc31)C2 | > 33.3 µM | > 30 µM | 0.0752 µM | 1.45 ×10⁻⁶ cm/s | 0.524 µM | 46.1% | 43.8% | > 30 µM | –
3 | c1ccc(CNCCCCN(C[C@H]2Cc3ccccc3CN2)[C@H]2CCCc3cccnc32)cc1 | 3.43 µM | > 30 µM | 0.0201 µM | – | 0.141 µM | 71.7% | 31.2% | > 30 µM | –
4 | FC1(F)CCC(NCCCCN(C[C@H]2Cc3ccccc3CN2)[C@H]2CCCc3cccnc32)CC1 | 28.2 µM | > 30 µM | 0.00371 µM | – | – | – | – | > 30 µM | –
5 | c1ccc2c(c1)CN[C@@H](CN(Cc1ccc(CNCC3CCOCC3)cc1)[C@H]1CCCc3cccnc31)C2 | > 16.7 µM | > 30 µM | – | – | – | – | – | – | –
6 | NCc1ccc(CN(C[C@H]2Cc3ccccc3CN2)[C@H]2CCCc3cccnc32)cc1 | > 33.3 µM | > 30 µM | – | – | – | – | – | – | –
7 | c1ccc2c(c1)CN[C@@H](CN(CCCCNCC1CCOCC1)[C@H]1CCCc3cccnc31)C2 | > 33.3 µM | > 30 µM | 0.0529 µM | 0.6 ×10⁻⁶ cm/s | 2.72 µM | 57.6% | 48.5% | > 30 µM | –
8 | c1ccc2c(c1)CN[C@@H](CN(CCCCNCc1ccncc1)[C@H]1CCCc3cccnc31)C2 | > 33.3 µM | > 30 µM | 0.0227 µM | 0.65 ×10⁻⁶ cm/s | 0.145 µM | 1.92% | 6.44% | > 30 µM | –
9 | FC1(F)CCC(CNCCCCN(C[C@H]2Cc3ccccc3CN2)[C@H]2CCCc3cccnc32)CC1 | > 16.7 µM | > 30 µM | 0.168 µM | – | – | – | – | > 30 µM | –
10 | NCc1cccc(CN(C[C@H]2Cc3ccccc3CN2)[C@H]2CCCc3cccnc32)c1 | 25.7 µM | > 30 µM | – | – | 0.032 µM | 97.3% | 89.2% | > 30 µM | –
11 | c1ccc2c(c1)CN[C@@H](CN(Cc1ccc(CNCc3ccncc3)cc1)[C@H]1CCCc3cccnc31)C2 | 12.2 µM | > 30 µM | – | – | 0.084 µM | 0.882% | 4.39% | > 30 µM | 38.5 ×10⁻⁶ cm/s
12 | CC(C)(CCN(C[C@H]1Cc2ccccc2CN1)[C@H]1CCCc2cccnc21)CNCC1CCOCC1 | 13 µM | > 30 µM | 0.0438 µM | 6.2 ×10⁻⁶ cm/s | 1.75 µM | 46.1% | 60.3% | > 30 µM | –
13 | c1ccc(CN(CCCCN(C[C@H]2Cc3ccccc3CN2)[C@H]2CCCc3cccnc32)Cc2ccccc2)cc1 | > 33.3 µM | > 30 µM | > 16.7 µM | 3.9 ×10⁻⁶ cm/s | 0.494 µM | 4.84% | 0.298% | > 30 µM | –
14 | c1cncc(CNCc2ccc(CN(C[C@H]3Cc4ccccc4CN3)[C@H]3CCCc4cccnc43)cc2)c1 | 21.4 µM | > 30 µM | – | – | – | – | – | – | –
15 | FC1(F)CCC(NCc2ccc(CN(C[C@H]3Cc4ccccc4CN3)[C@H]3CCCc4cccnc43)cc2)CC1 | > 16.7 µM | > 30 µM | – | – | 0.577 µM | 10.8% | 30.2% | > 30 µM | 0.5 ×10⁻⁶ cm/s
16 | CC1(C)CCC(NCCCCN(C[C@H]2Cc3ccccc3CN2)[C@H]2CCCc3cccnc32)CC1 | 19.9 µM | > 30 µM | 0.0776 µM | – | 0.09 µM | 30.1% | 50% | > 30 µM | 0.3 ×10⁻⁶ cm/s
17 | c1ccc2c(c1)CN[C@@H](CN(CCCCNCC1CCSCC1)[C@H]1CCCc3cccnc31)C2 | > 16.7 µM | > 30 µM | 0.0696 µM | – | 0.629 µM | 49.4% | 2.82% | > 30 µM | –
18 | O=S1(=O)CCC(CNCCCCN(C[C@H]2Cc3ccccc3CN2)[C@H]2CCCc3cccnc32)CC1 | > 16.7 µM | > 30 µM | 0.017 µM | – | 1.17 µM | 74% | 39.3% | > 30 µM | –
19 | c1ccc(CNCc2ccc(CN(C[C@H]3Cc4ccccc4CN3)[C@H]3CCCc4cccnc43)cc2)nc1 | 6.94 µM | > 30 µM | – | 1.6 ×10⁻⁶ cm/s | 0.377 µM | 1.77% | 11.6% | > 30 µM | –
20 | O=S1(=O)CCC(NCCCCN(C[C@H]2Cc3ccccc3CN2)[C@H]2CCCc3cccnc32)CC1 | > 33.3 µM | > 30 µM | 0.0455 µM | – | 0.853 µM | 11.7% | 17.6% | > 30 µM | –
21 | c1ccc2c(c1)CN[C@@H](CN(CCCCNC1CCNCC1)[C@H]1CCCc3cccnc31)C2 | > 33.3 µM | > 30 µM | 0.0634 µM | 1.9 ×10⁻⁶ cm/s | 2.61 µM | 100% | 38% | > 30 µM | –
22 | C(=C\CN(C[C@H]1Cc2ccccc2CN1)[C@H]1CCCc2cccnc21)/CNCc1ccncc1 | > 16.7 µM | > 30 µM | – | – | – | – | – | – | –
23 | CC1(C)CCC(NCc2ccc(CN(C[C@H]3Cc4ccccc4CN3)[C@H]3CCCc4cccnc43)cc2)CC1 | 8.76 µM | > 30 µM | – | – | 0.258 µM | 14.9% | 23.2% | > 30 µM | –
24 | c1ccc2c(c1)CN[C@@H](CN(Cc1ccc(CNC3CCOCC3)cc1)[C@H]1CCCc3cccnc31)C2 | > 16.7 µM | > 30 µM | – | – | 0.507 µM | 20.4% | 34.8% | > 30 µM | 9.2 ×10⁻⁶ cm/s
25 | c1ccc2c(c1)CN[C@@H](CN(CCCCNCC1CCNCC1)[C@H]1CCCc3cccnc31)C2 | > 16.7 µM | > 30 µM | 0.0365 µM | – | 2.53 µM | 84.6% | 37.9% | > 30 µM | –
26 | C(=C\CN(C[C@H]1Cc2ccccc2CN1)[C@H]1CCCc2cccnc21)/CNCc1cccnc1 | 35.1 µM | > 30 µM | – | – | 0.453 µM | 1.84% | 0.953% | > 30 µM | 24.4 ×10⁻⁶ cm/s
27 | c1ccc2c(c1)CN[C@@H](CN(CCCCNC1CCOCC1)[C@H]1CCCc3cccnc31)C2 | > 33.3 µM | > 30 µM | 0.0294 µM | – | 0.657 µM | 53% | 55.8% | > 30 µM | –
28 | c1cncc(CNCCCCN(C[C@H]2Cc3ccccc3CN2)[C@H]2CCCc3cccnc32)c1 | 19.9 µM | > 30 µM | 0.0153 µM | – | 0.217 µM | 21.4% | 10.2% | > 30 µM | –

From ChEMBL document CHEMBL4052827, “Discovery of Tetrahydroisoquinoline-Containing CXCR4 Antagonists with Improved in Vitro ADMET Properties” (J Med Chem, 2018)
